Laboratory results published in patent US5652359A, “Oligonucleotides containing n-methyl thiolated bases having antiviral activity” (Epoch Pharmaceuticals, Inc., priority 1993, dated 1997).
≈ marks a conversion by molar mass, not a printed value.

What was measured:
[1] = Visual cell toxicity in MRC-5 cells (HCMV assay); assay type: cell-based; details: human, previous data, read-out: CD50 (cytotoxicity)
Description: (§1) Cells MRC-5, an immortalized line of diploid, human ([…]) embryonic lung cells were used. These can be obtained from the American Type Culture Collection, Rockville, Md.
All compounds were prepared and diluted to the concentrations indicated in test medium. Growth medium was decanted from established monolayers of MRC-5 cells in 24-well tissue culture plates (Corning Glass Works, Corning, N.Y.). One ml of virus, diluted in test medium, was placed in each well except those to be used for cell controls. One ml of sterile test medium was placed in each of these cell control wells. Virus was allowed to adsorb to the cells while plates were centrifuged at 2200 rpm for 30 minutes at room temperature. Medium was aspirated from each well of the plates and 0.8 ml of the proper compound dilution was placed in each of the test wells (2 wells/dilution). Test medium without compound was added (0.8 ml/well) to each cell control and virus control well. Plates were placed in an incubator at 37° C. in a moist atmosphere of 5% CO2, 95% air until plaques could be distinguished in the virus control wells. […] Plaques were counted by use of a dissecting microscope.
ED50 and CD50 values were calculated by regression analysis of the viral plaque data and the visual cell toxicity data, respectively. […]

[2] = tested on: Human cytomegalovirus (HCMV), strain AD-169; assay: In vitro human cytomegalovirus inhibition (plaque) assay in MRC-5 cells; assay type: cell-based
Excerpt: as §1
Virus Human cytomegalovirus (HCMV), strain AD-169 were used. These can be obtained from the American Type Culture Collection, Rockville, Md.
Medium Growth medium for the MRC-5 cells consisted of Basal Medium Eagle (BME) (GIBCO BRL, Research Products Division, Life Technologies, Inc., Grand Island, N.Y. was the source of all media) with 10% fetal bovine serum (FBS) (Hyclone Laboratories, Logan Utah), 0.035% NaHCO3. Antibiotics were not used in the growth media. Test medium for dilution of HCMV and for preparation and dilution of compounds for the experiments was DMEM, 2% FBS, 0.1% NaHCO3, 50 μg gentamicin/ml.
All compounds were prepared and diluted to the concentrations indicated in test medium. Growth medium was decanted from established monolayers of MRC-5 cells in 24-well tissue culture plates (Corning Glass Works, Corning, N.Y.). One ml of virus, diluted in test medium, was placed in each well except those to be used for cell controls. One ml of sterile test medium was placed in each of these cell control wells. Virus was allowed to adsorb to the cells while plates were centrifuged at 2200 rpm for 30 minutes at room temperature. Medium was aspirated from each well of the plates and 0.8 ml of the proper compound dilution was placed in each of the test wells (2 wells/dilution). Test medium without compound was added (0.8 ml/well) to each cell control and virus control well. Plates were placed in an incubator at 37° C. in a moist atmosphere of 5% CO2, 95% air until plaques could be distinguished in the virus control wells. […] After 15 minutes, the stain was aspirated, the plates were rinsed in running tap water until the water was clear, and the plates were inverted and dried at room temperature. Plaques were counted by use of a dissecting microscope.
ED50 and CD50 values were calculated by regression analysis of the viral plaque data and the visual cell toxicity data, respectively. […] CD50 is the concentration halfway between those at which 100% and 0% cytotoxicity are seen.

[3] = biological target: T1, HIV-1 reverse transcriptase (RT) (Human immunodeficiency virus type 1 group M subtype B, UniProt P04585); assay: HIV reverse transcriptase assay, HIV-1; assay type: biochemical; details: RNA-dependent enzyme assay, 30 minutes at 37° C.
T1 construct: as a 66 and 51 kDa protein dimer; made in house; host or cells: bacteria
Description: HIV-1 reverse transcriptase (RT) was expressed from a recombinant plasmid in bacteria as a 66 and 51 kDa protein dimer as described by D'Aquila R. T. and Summers W. C., (1989) J. ACQUIRED IMMUNE DEFIC SYNDR 2:579-587.
The standard reaction mixture for the RNA-dependent enzyme assays contained in a 50 uL volume: 50 mM Tris-HCl, pH 7.8, 50 mM KCl, 6 mM MgCl2, 0.1 mg/mL heat-inactivated bovine serum albumin, 1 mM dithiothreitol, 0.5 0D260 units/mL template-primer Poly(rC) oligo(dG)12-18, 10 uM [^3 H]dGTP and 3.3×10^-3 units of HIV-1 RT. A unit was defined as the amount of enzyme necessary to incorporate 1 nanomol of [^3 H]dTMP into the Poly(rA)-oligo(dT)10 template in 1.0 min at 37° C. The samples were incubated for 30 minutes at 37° C., and all reactions were carried out in the linear range. Aliquot of 40 uL were spotted on glass fiber filters (Whatman GF/A) and processed for determination of trichloroacetic acid-insoluble radioactivity as described by Cheng Y. C., Dutschman G. E., Bastow K. F., Sarngadharan M. G., and Ting R. Y. C. (1987) J. BIOL CHEM 262:2187-2189. Poly(rA)-oligo(dT)10was used as template-primer.
Table 4 indicates the results obtained in this assay with examplary oligonucleotides of the invention. The oligonucleotides are identified by their respective "compound number".

[4] = biological target: HSV-1 DNA polymerase (Human herpesvirus 1, UniProt P04293); assay: HSV DNA polymerase assay, HSV-1; assay type: biochemical; details: activated calf thymus DNA, 30 minutes at 37° C.
Description: (§2) HSV DNA polymerases were assayed as described by Ostrander M., and Cheng Y. C., (1980) BIOCHEM. BIOPHYS. ACTA 609:232-245. The standard assay mixture (total volume 50 uL) contained 25 mM Tris-HCl pH 8, 10 mM MgCl2, 0.5 mM dithiothreitol, 0.5 mg/mL BSA, 200 mM KCl, 100 ug/mL activated calf thymus DNA, 0.1 mM each dATP, dCTP, dGTP, 5 uM [^3 H]dTTP (2 Ci/mmol), 4-5×10-^4 units of enzyme, and different drug concentrations. After incubation at 37° C. for 30 minutes, the reaction mixture was spotted on 2.4 cm Whatman GF/A glass fiber filter discs and trichloroacetic acid-insoluble radioactivity was measured.
(§3) One unit of DNA polymerase activity is defined as the amount of enzyme which catalyzes the incorporation of 1 nanomol of dTMP into activated DNA/30 min. […] IC50 is that concentration (expressed in micromoles) of the novel oligonucleotide which results in 50% inhibition of the enzyme.

[5] = biological target: T2, HSV-2 DNA polymerase (Human herpesvirus 2, UniProt P89453); assay: HSV DNA polymerase assay, HSV-2; assay type: biochemical; details: activated calf thymus DNA, 30 minutes at 37° C.
T2 sequence (P89453 1-1240): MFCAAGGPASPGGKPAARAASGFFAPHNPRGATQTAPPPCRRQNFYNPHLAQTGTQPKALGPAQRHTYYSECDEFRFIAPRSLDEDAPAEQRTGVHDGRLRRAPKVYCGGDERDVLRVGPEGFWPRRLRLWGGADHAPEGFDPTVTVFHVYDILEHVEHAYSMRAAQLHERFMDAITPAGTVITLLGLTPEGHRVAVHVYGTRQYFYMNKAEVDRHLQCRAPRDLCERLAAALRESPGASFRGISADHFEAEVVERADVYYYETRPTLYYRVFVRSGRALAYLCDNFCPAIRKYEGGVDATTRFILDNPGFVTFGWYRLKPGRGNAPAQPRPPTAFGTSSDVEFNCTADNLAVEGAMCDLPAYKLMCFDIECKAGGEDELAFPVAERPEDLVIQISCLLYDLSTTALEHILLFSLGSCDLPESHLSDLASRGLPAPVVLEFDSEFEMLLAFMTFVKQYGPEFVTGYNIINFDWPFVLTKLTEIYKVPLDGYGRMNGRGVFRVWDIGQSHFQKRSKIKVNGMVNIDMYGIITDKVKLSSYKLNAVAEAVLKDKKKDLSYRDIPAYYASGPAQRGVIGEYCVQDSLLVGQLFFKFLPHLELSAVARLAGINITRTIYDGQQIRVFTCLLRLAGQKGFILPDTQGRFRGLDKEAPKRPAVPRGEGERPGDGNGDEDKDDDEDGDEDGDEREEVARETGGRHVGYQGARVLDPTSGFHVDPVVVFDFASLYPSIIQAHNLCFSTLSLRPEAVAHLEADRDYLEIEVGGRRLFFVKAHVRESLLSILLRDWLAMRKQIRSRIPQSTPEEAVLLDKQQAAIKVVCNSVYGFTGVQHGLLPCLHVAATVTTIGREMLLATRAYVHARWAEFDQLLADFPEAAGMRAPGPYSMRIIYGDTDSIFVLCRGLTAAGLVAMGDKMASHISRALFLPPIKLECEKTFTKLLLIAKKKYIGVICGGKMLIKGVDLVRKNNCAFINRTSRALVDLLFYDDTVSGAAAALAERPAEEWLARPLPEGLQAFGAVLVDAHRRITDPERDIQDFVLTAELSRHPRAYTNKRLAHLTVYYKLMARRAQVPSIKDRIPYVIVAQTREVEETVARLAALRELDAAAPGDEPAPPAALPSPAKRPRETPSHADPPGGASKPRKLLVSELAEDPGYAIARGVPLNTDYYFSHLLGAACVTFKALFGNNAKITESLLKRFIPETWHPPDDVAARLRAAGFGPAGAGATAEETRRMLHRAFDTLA
Description: as §2, §3

[6] = biological target: T3, HIV-2 reverse transcriptase (Human immunodeficiency virus type 2 subtype A, UniProt P04584); assay: HIV reverse transcriptase assay, HIV-2; assay type: biochemical; details: RNA-dependent enzyme assay, 30 minutes at 37° C.
T3 construct: HIV REVERSE TRANSCRIPTASE ASSAY
T3 sequence (P04584 613-1171 limits assumed): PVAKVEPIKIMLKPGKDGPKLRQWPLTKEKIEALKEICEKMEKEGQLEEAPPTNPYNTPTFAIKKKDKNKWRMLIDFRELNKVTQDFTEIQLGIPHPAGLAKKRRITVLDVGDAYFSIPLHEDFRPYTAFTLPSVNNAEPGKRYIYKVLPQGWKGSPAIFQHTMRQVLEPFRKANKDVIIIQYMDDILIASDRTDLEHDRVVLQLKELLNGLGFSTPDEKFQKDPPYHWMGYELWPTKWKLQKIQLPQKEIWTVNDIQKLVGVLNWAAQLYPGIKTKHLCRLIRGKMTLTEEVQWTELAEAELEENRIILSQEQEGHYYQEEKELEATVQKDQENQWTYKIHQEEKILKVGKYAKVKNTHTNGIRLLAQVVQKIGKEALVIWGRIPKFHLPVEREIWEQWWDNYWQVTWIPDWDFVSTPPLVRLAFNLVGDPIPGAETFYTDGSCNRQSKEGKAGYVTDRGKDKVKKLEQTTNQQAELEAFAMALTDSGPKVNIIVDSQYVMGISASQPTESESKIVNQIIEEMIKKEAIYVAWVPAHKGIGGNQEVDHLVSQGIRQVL

HSV-1 DNA polymerase, sequence (P04293 whole entry): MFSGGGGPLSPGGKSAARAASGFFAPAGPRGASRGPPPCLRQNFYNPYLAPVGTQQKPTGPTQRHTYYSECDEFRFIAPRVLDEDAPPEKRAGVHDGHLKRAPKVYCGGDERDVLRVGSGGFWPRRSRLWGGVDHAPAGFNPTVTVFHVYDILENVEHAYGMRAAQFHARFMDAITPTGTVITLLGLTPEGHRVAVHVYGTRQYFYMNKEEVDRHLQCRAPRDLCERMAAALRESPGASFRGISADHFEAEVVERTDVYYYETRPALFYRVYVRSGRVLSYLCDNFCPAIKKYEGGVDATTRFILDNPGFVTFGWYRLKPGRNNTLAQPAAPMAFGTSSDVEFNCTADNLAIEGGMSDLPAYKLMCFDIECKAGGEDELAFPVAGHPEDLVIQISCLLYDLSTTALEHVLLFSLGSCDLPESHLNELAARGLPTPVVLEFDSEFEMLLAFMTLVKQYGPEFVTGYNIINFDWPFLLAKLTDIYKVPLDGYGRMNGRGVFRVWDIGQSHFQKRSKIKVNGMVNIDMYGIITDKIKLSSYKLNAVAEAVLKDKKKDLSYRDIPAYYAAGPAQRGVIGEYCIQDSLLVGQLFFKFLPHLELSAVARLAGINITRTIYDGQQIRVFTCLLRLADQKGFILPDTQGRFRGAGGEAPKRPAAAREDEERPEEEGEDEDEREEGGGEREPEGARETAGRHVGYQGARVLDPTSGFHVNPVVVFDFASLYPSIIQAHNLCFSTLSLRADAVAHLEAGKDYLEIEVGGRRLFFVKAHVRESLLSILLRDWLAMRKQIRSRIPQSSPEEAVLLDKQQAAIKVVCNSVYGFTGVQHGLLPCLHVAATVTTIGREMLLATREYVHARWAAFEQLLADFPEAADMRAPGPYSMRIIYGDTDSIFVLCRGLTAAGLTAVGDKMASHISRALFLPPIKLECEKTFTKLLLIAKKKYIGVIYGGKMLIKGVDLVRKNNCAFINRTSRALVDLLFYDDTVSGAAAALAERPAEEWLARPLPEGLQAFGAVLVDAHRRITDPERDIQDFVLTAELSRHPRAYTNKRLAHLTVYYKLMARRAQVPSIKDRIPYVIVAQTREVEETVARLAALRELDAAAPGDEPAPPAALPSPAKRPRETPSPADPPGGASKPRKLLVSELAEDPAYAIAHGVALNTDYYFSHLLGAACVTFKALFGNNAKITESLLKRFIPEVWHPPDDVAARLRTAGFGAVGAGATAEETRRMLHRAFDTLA

Row | Molecule | CC50 [1] | # of plaques ([2]; 0.32 μg/ml) | # of plaques ([2]; 1.0 μg/ml) | # of plaques ([2]; 3.2 μg/ml) | # of plaques ([2]; 10 μg/ml) | Therapeutic Index TI = CD50/ED50 ([2]; HCMV, MRC-5 cells) | inhibition at 0.32 µg/mL ([2]; Human betaherpesvirus 5, AD169, MRC5, 0.32 μg/ml, read-out: % reduction (plaques)) | inhibition at 1 µg/mL ([2]; Human betaherpesvirus 5, AD169, MRC5, 1.0 μg/ml, read-out: % reduction (plaques)) | inhibition at 3.2 µg/mL ([2]; Human betaherpesvirus 5, AD169, MRC5, 3.2 μg/ml, read-out: % reduction (plaques)) | inhibition at 10 µg/mL ([2]; Human betaherpesvirus 5, AD169, MRC5, 10 μg/ml, read-out: % reduction (plaques)) | EC50 ([2]; Human betaherpesvirus 5, AD169, MRC5, regression analysis of viral plaque data, read-out: ED50 (plaques reduced to 50% of virus controls)) | IC50 [3] | IC50 [4] | IC50 [5] | IC50 [6]
1 | Nc1nc(O)c2ncn(COC(CO)CO)c2n1 [DHPG, Ganciclovir] | > 1000 µg/mL | 39.5 | 33.5 | 10.5 | 0.0 | > 588 | 14% | 27% | 77% | 100% | 1.7 µg/mL (≈ 6.66 µM) |  |  |  | 
2 | 5[dCyd3P(S)(O)]27dCyd [SdC28] |  |  |  |  |  |  |  |  |  |  |  | 15 ± 4 nM | 30 nM | 90 nM | 71 ± 11 nM
